Reference: US20110245294A1, “METHODS OF IMPROVING QUALITY OF SLEEP” (THERAVIDA, INC., priority 2010, published 2011)

Assays:
[1] = tested on: healthy volunteers; details: some studies have suggested; cited from earlier work
[2] = tested on: patients being treated for OAB
Text: Enrollment of subjects already taking this medication was used to enable the collection of steady-state baseline information and to minimize discontinuations during the 4-week treatment period. On three consecutive days, subjects were asked to complete paper diaries where the subject answered questions related to the degree of difficulty of sleep and responded by using a VAS. These questions and VAS have been validated and used in other clinical studies. Furthermore, each subject relinquished the completed diary at the end of each treatment period following a review by clinic staff.
The methods used to collect information for assessment of quality of sleep, subjects were asked specific questions and they rated their quality of sleep using a VAS. The mean of the values obtained on each of the three days was used as the sole value for the baseline or treatment value. The methods used to evaluate effect on quality of sleep of the combination and oxybutynin alone are widely used and considered standard.
The VAS is a validated scale utilized in clinical trials and registrational studies of many drugs. Patients were instructed on how to complete the diary over 3 consecutive days and perform VAS assessments for quality of sleep on the diary days. The ratings were from 0 to 100 on a 100-mm line, and the patient was asked to rate themself by marking the horizontal line. For instance, quality of sleep was quantified as 0=easy and 100=difficult.

SMILES | effect on sleep [1] | VAS quality of sleep response versus baseline or monotherapy, in words ([2]; 100-point mm scale, reduction from baseline) | Change in LSM from Baseline in Quality of Sleep ([2]; ITT population, N = 42, lower scores indicate improvement from baseline, P value 0.0073 between treatments) [mm] | Quality of Sleep Value (VAS), mean ([2]; mean over subjects, 0=easy, 100=difficult, 2 weeks treatment, baseline mean 37.6 mm) [mm]
CCN(CC)CC#CCOC(=O)C(O)(c1ccccc1)C1CCCCC1 (centres unmarked) [Oxybutynin, oxybutynin] | adverse effect on the sleep | unchanged from baseline | 3.7 | 41.3
O=C(O[C@H]1C[C@H]2CC[C@@H](C1)[N+]21CCCC1)C(O)(c1ccccc1)c1ccccc1 [trospium] | adverse effect on the sleep |  |  | 
